Data published in ChEMBL document CHEMBL3039007, “Structure-based identification of OATP1B1/3 inhibitors” (Mol Pharmacol, 2013).

What was measured:
[1] = biological target: T1, Solute carrier organic anion transporter family member 1B3 (Homo sapiens, UniProt Q9NPD5); settings: chinese hamster, cho, 10 µM
T1 sequence (Q9NPD5 whole entry): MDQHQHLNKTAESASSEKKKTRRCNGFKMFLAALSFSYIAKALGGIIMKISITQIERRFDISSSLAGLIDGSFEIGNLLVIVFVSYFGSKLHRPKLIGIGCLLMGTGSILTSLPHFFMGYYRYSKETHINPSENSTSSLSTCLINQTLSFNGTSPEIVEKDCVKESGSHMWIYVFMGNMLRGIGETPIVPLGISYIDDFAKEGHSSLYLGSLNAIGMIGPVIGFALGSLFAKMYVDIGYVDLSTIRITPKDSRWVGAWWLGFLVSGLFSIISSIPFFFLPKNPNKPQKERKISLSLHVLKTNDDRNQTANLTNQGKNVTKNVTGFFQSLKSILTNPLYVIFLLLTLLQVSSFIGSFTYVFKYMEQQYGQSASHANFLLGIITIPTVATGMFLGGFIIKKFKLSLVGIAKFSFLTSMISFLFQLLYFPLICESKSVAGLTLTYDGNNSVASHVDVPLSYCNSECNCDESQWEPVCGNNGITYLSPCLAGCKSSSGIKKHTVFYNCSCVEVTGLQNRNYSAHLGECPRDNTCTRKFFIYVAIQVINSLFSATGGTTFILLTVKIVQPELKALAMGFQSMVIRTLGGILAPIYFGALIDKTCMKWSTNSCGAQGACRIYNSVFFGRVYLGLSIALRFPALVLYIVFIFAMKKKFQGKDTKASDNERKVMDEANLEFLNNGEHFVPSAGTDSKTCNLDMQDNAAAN

[2] = biological target: T2, Solute carrier organic anion transporter family member 1B1 (Homo sapiens, UniProt Q9Y6L6); settings: chinese hamster, cho, 10 µM
T2 sequence (Q9Y6L6 whole entry): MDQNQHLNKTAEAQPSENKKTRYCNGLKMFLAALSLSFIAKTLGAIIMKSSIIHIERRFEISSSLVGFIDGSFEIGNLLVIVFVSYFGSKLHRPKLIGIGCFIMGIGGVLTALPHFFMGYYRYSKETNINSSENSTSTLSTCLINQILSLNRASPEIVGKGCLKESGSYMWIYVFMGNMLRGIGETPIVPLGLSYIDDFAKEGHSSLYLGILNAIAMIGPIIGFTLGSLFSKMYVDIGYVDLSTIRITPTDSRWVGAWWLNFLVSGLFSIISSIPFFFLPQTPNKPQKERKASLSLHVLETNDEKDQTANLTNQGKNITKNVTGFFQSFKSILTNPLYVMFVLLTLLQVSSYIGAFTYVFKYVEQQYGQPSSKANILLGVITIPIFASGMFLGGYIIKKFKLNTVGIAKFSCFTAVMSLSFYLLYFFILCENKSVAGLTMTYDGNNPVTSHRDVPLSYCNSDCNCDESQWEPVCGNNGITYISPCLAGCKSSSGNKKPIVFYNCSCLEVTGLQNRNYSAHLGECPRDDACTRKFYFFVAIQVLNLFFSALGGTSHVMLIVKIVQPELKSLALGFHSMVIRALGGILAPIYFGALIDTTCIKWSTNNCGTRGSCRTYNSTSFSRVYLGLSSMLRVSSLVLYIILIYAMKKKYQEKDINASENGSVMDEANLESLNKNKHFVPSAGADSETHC

SMILES	residual activity [1]	residual activity [2]
CC(C(=O)O)c1ccc(-c2ccccc2)c(F)c1 (stereo not given) [FLURBIPROFEN]	98.28%	227%
CCCCOC(=O)c1ccccc1C(=O)OCCCC [DIBUTYL PHTHALATE]	124.6%	119.5%
CC(NCCc1ccc(O)cc1)C(O)c1ccc(O)cc1.Cl (stereo not given) [RITODRINE HYDROCHLORIDE]	112.7%	125.6%
NC[C@H]1O[C@H](O[C@H]2[C@H](O)[C@@H](O[C@H]3O[C@H](CO)[C@@H](O)[C@H](N)[C@H]3O)[C@H](N)C[C@@H]2N)[C@H](N)[C@@H](O)[C@@H]1O.O=S(=O)(O)O [BEKANAMYCIN SULFATE]	118.1%	101.9%
COc1ccc(C(c2ccc(OC)cc2)C(Cl)(Cl)Cl)cc1 [METHOXYCHLOR]	102.3%	114%
CN(C)CCCO[C@@H]1[C@H]2OC(C)(C)O[C@H]2O[C@@H]1[C@H](O)CO [AMIPRILOSE]	95.1%	91.07%
COc1c(-c2coc3cc4c(cc3c2=O)CC(O)C(C)(C)O4)ccc2c1C=CC(C)(C)O2 (stereo not given) [MUNDULONE]	45.15%	31.23%
CC1(C)C(=O)C=C[C@@]2(C)C1=C(O)C(=O)[C@]1(C)[C@@H]2CC[C@@]2(C)[C@H](c3ccoc3)C[C@H]3O[C@]321 [CEDRELONE]	60.66%	44.73%
CCOC(=O)C1(O)Oc2cc(OC)cc(OC)c2C(=O)C1c1ccccc1 (stereo not given) [2-ETHOXYCARBONYL-2-HYDROXY-5,7-DIMETHOXYISOFLAVANONE]	104%	106.9%
CCNc1nc(Cl)nc(NCC)n1 [SIMAZINE]	92.02%	89.71%
Cc1ncc([N+](=O)[O-])n1CC(C)O (stereo not given) [SECNIDAZOLE]	92.29%	132.9%
COc1c2occc2cc2ccc(=O)oc12 [METHOXSALEN]	107.3%	102.5%
O=C(Cn1ccnc1[N+](=O)[O-])NCCO [ETANIDAZOLE]	76.09%	72.81%
COc1c(N2CCNC(C)C2)c(F)cc2c(=O)c(C(=O)O)cn(C3CC3)c12 (stereo not given) [GATIFLOXACIN]	96.61%	121.9%
CSc1nc(NC(C)C)nc(NC(C)C)n1 [PROMETRYN]	86.3%	175.4%
COC(=O)C(N)CS.Cl (stereo not given) [MECYSTEINE HYDROCHLORIDE]	99.55%	97.76%
CN1C(C(=O)Nc2ccccn2)=C(O)c2ccccc2S1(=O)=O [PIROXICAM]	87.59%	68.52%
COC(=O)Nc1nc2ccc([S+]([O-])c3ccccc3)cc2[nH]1 (stereo not given) [OXFENDAZOLE]	114.2%	95.15%
COc1ccccc1-c1cc(=O)c2cccc(OC)c2o1 [8,2'-DIMETHOXYFLAVONE]	108%	107.3%
COc1cc2c(cc1O)[C@@H](Cc1ccc(O)cc1)[N+](C)(C)CC2.[I-] [MAGNOCURARINE IODIDE]	96.29%	91.83%
CN1C(=O)CC[C@H]1c1cccnc1 [COTININE]	103%	106.5%
CCC(Cc1c(I)cc(I)c(N)c1I)C(=O)O (stereo not given) [IOPANOIC ACID]	59.57%	31.11%
ClC(Cl)=C(c1ccc(Cl)cc1)c1ccc(Cl)cc1 [DICHLORODIPHENYLDICHLOROETHYLENE]	103.2%	94.96%
Nc1ccn([C@@H]2O[C@H](CO)[C@@H](O)[C@@H]2O)c(=O)n1 [CYTARABINE]	95.76%	78.64%
CN[C@@H](C)[C@@H](O)c1ccccc1.Cl [PSEUDOEPHEDRINE HYDROCHLORIDE]	102.7%	86.1%
